From patent US5744462A, “Steroids useful as anti-cancer and anti-obesity agents” (Research Corporation Technologies, Inc., priority 1995, dated 1998)
Values joined by “and” are separate entries in the source; they are usually repeats but may differ in a detail not shown here. Identical values can stand only once. “Also recorded” adds a separate entry of the source.

Experiments:
[1] = molecular target: purified bovine adrenal G6PDH (Bos taurus, UniProt F1MMK2); experiment: G6PDH inhibition test; assay type: biochemical; details: individual determinations; for inhibition at 10 µM / inhibition at 1 µM / inhibition at 0.1 µM: read-out: Percent Inhibition of G6PDH
purified bovine adrenal G6PDH, sequence (F1MMK2 31-70): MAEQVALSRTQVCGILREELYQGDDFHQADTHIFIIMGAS
purified bovine adrenal G6PDH, sequence (F1MMK2 101-575): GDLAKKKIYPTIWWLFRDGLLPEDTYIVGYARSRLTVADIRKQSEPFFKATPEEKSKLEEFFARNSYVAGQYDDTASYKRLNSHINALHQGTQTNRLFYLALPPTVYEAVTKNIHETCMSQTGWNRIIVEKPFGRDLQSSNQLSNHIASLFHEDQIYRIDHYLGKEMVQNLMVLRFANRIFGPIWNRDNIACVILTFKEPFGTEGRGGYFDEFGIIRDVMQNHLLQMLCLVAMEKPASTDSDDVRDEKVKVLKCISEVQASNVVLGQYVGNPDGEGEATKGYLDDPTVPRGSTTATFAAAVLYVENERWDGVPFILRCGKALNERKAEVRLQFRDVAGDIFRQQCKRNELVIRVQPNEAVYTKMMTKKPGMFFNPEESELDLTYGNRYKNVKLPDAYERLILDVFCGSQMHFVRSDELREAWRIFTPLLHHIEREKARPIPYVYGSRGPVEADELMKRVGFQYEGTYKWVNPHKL
Text: The compound listed below are screened as inhibitors of purified bovine adrenal G6PDH activity as one predictor of cancer preventive action. The assay for testing the inhibition of purified bovine adrenal G6PDH is according to the procedure by Oertell, G. W. and Rebelein, I. in Biochem. Biophys. Acta, 184, 459-460 (1969).

[2] = system: mouse epidermis (TPA stimulated 3H-thymidine incorporation); experiment: TPA stimulation of 3H-thymidine incorporation in mouse epidermis, oral steroid; assay type: in vivo, mouse (male ICR)
Method: (§1) Tumor promoters, such as TPA, stimulate hyperplasia and DNA synthesis when applied to the skin, and it is believed that this stimulation is an important step in the enhancement of tumorigenesis.
Male ICR mice were orally intubated with steroid suspended in sesame oil (0.5 ml/mouse) at the indicated dose. Mice not receiving steroid were given sesame oil alone. One hour later mice received topical application of TPA and 20 hours later the rate of ^3 H-thymidine incorporation into the epidermis was determined as described in Pashko, L. L., Schwartz, A. G., Abou-Gharbia, M., and Swern, D. (1981), Inhibition of DNA synthesis in mouse epidermis and breast epithelium by dehydroepiandrosterone and related steroids, Carcinogenesis, 2,-717-721.
Experimental conditions are the same as in Table 3.

liver catalase = experiment: Liver catalase activity after three weeks of diet treatment; assay type: in vivo, mouse (female Balb/c); details: for CATALASE ACTIVITY / catalase activity, in words: 0.25% of diet; for CATALASE ACTIVITY: control 31.1 ± 6.7, DHEA p < 0.05, clofibrate p < 0.001 vs control; for catalase activity, in words: mice
Method: (§2) Female Balb/c mice were housed in polycarbonate cages (6/mice/cage) in animal quarters maintained at 24°±1° C. with 12 hours of light and 12 hours of dark each day. The mice were placed on a diet containing either DHEA, 8354, A, B clofibrate or with no addition. Three weeks later the mice were killed, the livers were perfused with cold saline, weighed, and 5% liver homogenates were prepared for the determination of catalase activity by the spectrophotometric method of Luck (H. Luck, in Method in Enzyme Analysis, H. U. Bergmeyer, Ed. (Verlag Chemie, Weinheim/Bergstrasse, Germany, 1965)). Total protein was measured by the method of Lowry, et al. (O. H. Lowry, N. J. Rosebrough, A. L. Farr, R. J. Randall, J. Biol. Chem., 193, 265 (1951)).

[3] = Liver weight after three weeks of diet treatment; assay type: in vivo, mouse (female Balb/c); details: 0.25% of diet; for LIVER WEIGHT: control 0.057 ± 0.006, DHEA p < 0.05, clofibrate p < 0.002 vs control; for liver weight, in words: mice
Method: as §2

mouse skin DNA = experiment: (3H) DMBA binding to skin DNA; assay type: in vivo, mouse (A/J); details: for effect on 3H-DMBA binding to skin DNA: oral, mice, doses well below 400 mg/kg
[4] = Estrogenic / androgenic side-effects, general statements; details: in vivo
[5] = in vivo; cited from earlier work
[6] = Estrogenic and anti-estrogenic activity, uterine weight; assay type: in vivo, rat (female CD); details: 60 mg/kg s.c. for 3 days; control 2.02 ± 0.28; DHEA significantly greater than control, p < .001
Method: Estrogenic and Anti-Estrogenic Activity
Female CD rats, 26-27 days old, were injected subcutaneously for 3 days with one of the compounds of the present invention at 60 mg/kg in propylene glycol. Controls received propylene glycol alone. On the 4th day, the rats were killed and the uteri were dissected out and weighed.

[7] = Anti-obesity action, body weight, male A/J mice; assay type: in vivo, mouse (male A/J); details: 0.45% in diet
Method: Male A/J (5 weeks old) mice were obtained from the
Jackson Laboratory and were housed in polycarbonate cages (6
mice/cage) in animal quarters maintained at 24 ± 1° C. with 12
hours of light and 12 hours of darkness each day. One week
after arrival, the mice were placed on a diet containing
either DHEA, 8353, or without steroid. Animals were weighed

[8] = system: mouse epidermal DNA (TPA stimulated 3H-thymidine incorporation); experiment: TPA stimulation of 3H-thymidine incorporation in epidermis, topical steroid; assay type: in vivo, mouse (A/J); details: no steroid 66, TPA alone 174
Method: as §1
Incorporation of ^3 H-thymidine into A/J mouse epidermal DNA was determined as described in Pashko, L. L., Schwartz, A. G., Abou-Gharbia, M. and Swern, D. (1981), Inhibition of DNA synthesis in mouse epidermis and breast epithelium by dehydroepiandrosterone and related steroids, Carcinogenesis, 2, 717-721. Values are mean±SD for 3 separately treated mice in each group 20 hours after TPA application. DHEA or testosterone was added topically in 0.2 ml acetone one hour before TPA addition.

[9] = Body weight and food consumption in the DMBA binding experiment; assay type: in vivo, mouse; details: two weeks of feeding
Method: Binding of [^3 H]DMBA to mouse skin DNA was determined as described in Pashko, L. L., and Schwartz, A. G. (1983), Effect of food restriction, dehydroepiandrosterone, or obesity on the binding of ^3 H-7,12-dimethylbenz(a)anthracene to mouse skin DNA, J. Gerontol., 38, 8-12. Values are mean±SD for 3 individual determinations, with pooled tissue from 2 mice used for each determination. DHEA or testosterone (400 ug in 0.2 ml acetone) was applied to the skin one hour before [^3 H]DMBA. The mean weight of the food restricted mice was 18.5±1.0 gm, n=6, of the ad libitum fed, 27.4±1.0 gm, n=6, of the ad libitum fed treated with DHEA, 28.2±0.9 gm, n=6, and of the ad libitum fed treated with testosterone, 28.3±0.9 gm, n=6, following two weeks of feeding. The average food consumed was, in gm/mouse/day, 2.2, 3.8, 3.8 and 4.0 for the food restricted, ad libitum fed, ad libitum fed plus DHEA, and ad libitum fed plus testosterone groups, respectively.

[10] = Table 3, oral 25 mg/kg, no steroid 70.2, TPA alone 154
[11] = Table 3, oral 50 mg/kg, no steroid 70.2, TPA alone 154
[12] = Table 3, oral 100 mg/kg, no steroid 70.2, TPA alone 154

SMILES | Percent Inhibition of G6PDH ([1]; 10^-5 M) | inhibition at 10 µM ([1]; 10^-5 M) | inhibition at 1 µM ([1]; 10^-6 M) | Percent Inhibition of G6PDH ([1]; 10^-7 M) | inhibition at 0.1 µM ([1]; 10^-7 M) | CATALASE ACTIVITY (liver catalase) | catalase activity, in words (liver catalase) | LIVER WEIGHT [3] | liver weight, in words [3] | effect on 3H-DMBA binding to skin DNA (mouse skin DNA) | Percent Inhibition of G6PDH ([1]; 10^-6 M) | effect on liver (type of hepatomegaly) [5] | also measured
C[C@]12CCCC[C@@H]1CC[C@@H]1[C@@H]2CC[C@]2(C)C(=O)[C@H](O)C[C@@H]12 [A] | 92% and 91% | 94% | 72% | 25% | 17% | 42.3 ± 7.2 Units per mg protein | no effect on liver weight or catalase activity | 0.058 ± 0.004 gm/gm body weight | no effect on liver weight; also recorded: neither increased liver weight | inhibit ^3 H-DMBA binding to skin DNA | – | – | SPECIFIC ACTIVITY, TPA stimulated 3H-thymidine incorporation [2, 10]: 77.4 ± 10.4 cpm/ug DNA; SPECIFIC ACTIVITY, TPA stimulated 3H-thymidine incorporation [2, 11]: 35.2 ± 1.8 cpm/ug DNA; SPECIFIC ACTIVITY, TPA stimulated 3H-thymidine incorporation [2, 12]: 8.1 ± 4.1 cpm/ug DNA; estrogenic and androgenic side-effects [4]: lacking the estrogenic and androgenic side-effects of DHEA
C[C@]12CCCC[C@@H]1CC[C@@H]1[C@@H]2CC[C@]2(C)C(=O)[C@H](F)C[C@@H]12 [B] | – | 96% | 82% | – | 36% | 32.2 ± 6.0 Units per mg protein | no effect on liver weight or catalase activity | 0.061 ± 0.002 gm/gm body weight | no effect on liver weight; also recorded: neither increased liver weight | inhibit ^3 H-DMBA binding to skin DNA | 84% | – | SPECIFIC ACTIVITY, TPA stimulated 3H-thymidine incorporation [2, 10]: 66.1 ± 9.8 cpm/ug DNA; SPECIFIC ACTIVITY, TPA stimulated 3H-thymidine incorporation [2, 11]: 25.6 ± 4.0 cpm/ug DNA; SPECIFIC ACTIVITY, TPA stimulated 3H-thymidine incorporation [2, 12]: 7.2 ± 3.8 cpm/ug DNA; estrogenic and androgenic side-effects [4]: lacking the estrogenic and androgenic side-effects of DHEA
C[C@@H]1C[C@H]2[C@@H]3CC=C4CCCC[C@]4(C)[C@H]3CC[C@]2(C)C1=O [C] | 52% | 54% | 33% | 24% | 20% | – | – | – | – | – | 31% | – | –
CCOC(=O)C(C)(C)Oc1ccc(Cl)cc1 [Clofibrate, clofibrate, reference compound] | – | – | – | – | – | 92.1 ± 8.9 Units per mg protein | stimulated catalase activity | 0.084 ± 0.006 gm/gm body weight | increased liver weight; also recorded: hepatomegaly | – | – | Typical peroxisome proliferators | increase in liver catalase specific activity (liver catalase; 0.25%, vs control): threefold
C[C@]12CCCCC1=CC[C@@H]1[C@@H]2CC[C@]2(C)C(=O)[C@H](O)C[C@@H]12 [Compound 8353] | – | 77% | 30% | – | – | – | – | – | – | inhibit ^3 H-DMBA binding to skin DNA | 36% and 29% and 38% | – | SPECIFIC ACTIVITY, TPA stimulated 3H-thymidine incorporation ([2]; Table 8, 75 mg/kg, p.o.): 15.9 ± 2.4 cpm/ug DNA; SPECIFIC ACTIVITY, TPA stimulated 3H-thymidine incorporation ([2]; Table 8, 150 mg/kg, p.o.): 14.0 ± 1.1 cpm/ug DNA; SPECIFIC ACTIVITY, TPA stimulated 3H-thymidine incorporation ([2]; Table 8, 200 mg/kg, p.o.): 14.3 ± 1.7 cpm/ug DNA; Mean Uterine Weight ± S.D. [6]: 2.15 ± 0.17 mg/100 gm body weight; mean weekly weight ± S.D. ([7]; week 0, control 23 ± 1.5): 23.3 ± 1.6 grams; mean weekly weight ± S.D. ([7]; week 1, control 25.0 ± 1.6): 21.1 ± 1.4 grams; mean weekly weight ± S.D. ([7]; week 2, control 27.0 ± 1.6): 21.9 ± 1.0 grams; mean weekly weight ± S.D. ([7]; week 3, control 27.3 ± 1.6): 23.6 ± 1.5 grams; mean weekly weight ± S.D. ([7]; week 4, control 27.5 ± 1.9): 23.5 ± 1.5 grams
Clc1ccc(C(c2ccc(Cl)cc2)C(Cl)(Cl)Cl)cc1 [DDT] | – | – | – | – | – | – | – | – | – | – | – | stimulate proliferation of smooth endoplasmic reticulum in liver cells and induce microsomal drug metabolizing enzymes | –
C[C@H]1C[C@H]2[C@@H]3CC=C4CCCC[C@]4(C)[C@H]3CC[C@]2(C)C1=O [D] | 47% | 44% | 13% | – | – | – | – | – | – | – | 20% | – | –
C[C@]12CCCCC1=CC[C@@H]1[C@@H]2CC[C@]2(C)C(=O)[C@](C)(F)C[C@@H]12 [F] | – | 82% | 66% | 34% | 28% | – | – | – | – | – | 69% | – | –
CCC1(c2ccccc2)C(=O)NC(=O)NC1=O [phenobarbital] | – | – | – | – | – | – | – | – | – | – | – | stimulate proliferation of smooth endoplasmic reticulum in liver cells and induce microsomal drug metabolizing enzymes | –
C[C@]12CC[C@H]3[C@@H](CCC4=CC(=O)CC[C@@]43C)[C@@H]1CC[C@@H]2O [testosterone] | – | – | – | – | – | – | – | – | – | – | – | – | SPECIFIC ACTIVITY, TPA stimulated 3H-thymidine incorporation ([8]; topical 100 ug): 128 ± 13 cpm/ug DNA; SPECIFIC ACTIVITY, TPA stimulated 3H-thymidine incorporation ([8]; topical 400 ug): 142 ± 5.9 cpm/ug DNA; mean body weight ([9]; topical 400 ug, ad libitum fed 27.4±1.0): 28.3±0.9 gm; average food consumed ([9]; ad libitum fed 3.8): 4.0 gm/mouse/day; SPECIFIC ACTIVITY, (3H) DMBA binding to skin DNA (mouse skin DNA; 400 ug topical one hour before DMBA, ad libitum fed 116 ± 5.2): 164 ± 8.4 cpm/ug DNA; effect on rate of binding of 3H-DMBA to skin DNA (mouse skin DNA; topical, in words (Table 4)): without inhibitory effect
